# Assay results: paper PMC3415135 (Evidence-based Complementary and Alternative Medicine : eCAM, 2012)
# Assays:
# Assay type in all cases: biochemical
# Apis = Apis (Apis mellifera, UniProt P00630)
# [1] = target: T1, LOX 15HRC (Lipoxygenase 15hrc); experiment: enzyme inhibition, Cayman kit; details: per manufacturer's instructions
# T1 construct: gene ALOX15; commercial, Cayman Chemical
# From the text: enzyme inhibition, Cayman kit on LOX 15HRC (Lipoxygenase 15hrc)
# COX-2 (cyclooxygenase-2) = target: T2, COX-2 (cyclooxygenase-2); experiment: enzyme inhibition, Cayman kit; details: per manufacturer's instructions
# T2 construct: gene PTGS2; commercial, Cayman Chemical
# From the text: enzyme inhibition, Cayman kit on COX-2 (cyclooxygenase-2)
# [2] = target: T3, HGVPLA2 (human group V PLA2) (Homo sapiens, UniProt P39877); experiment: enzyme inhibition, Cayman kit
# T3 construct: gene PLA2G5; commercial assay, Cayman Chemical
# T3 sequence (P39877 21-138): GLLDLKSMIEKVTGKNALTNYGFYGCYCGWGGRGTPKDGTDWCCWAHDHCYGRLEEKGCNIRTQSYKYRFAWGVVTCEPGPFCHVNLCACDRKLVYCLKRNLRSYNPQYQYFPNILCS
# From the text: enzyme inhibition, Cayman kit on HGVPLA2 (human group V PLA2)
# [3] = target: T4, BPPLA2 (bovine pancreas PLA2) (Bos taurus, UniProt P00593); experiment: enzyme inhibition, Cayman kit
# T4 construct: gene PLA2G1B; native pancreatic enzyme, purchased from Sigma-Aldrich
# From the text: enzyme inhibition, Cayman kit on BPPLA2 (bovine pancreas PLA2)
# Chain of Apis (P00630 34-167 limits assumed): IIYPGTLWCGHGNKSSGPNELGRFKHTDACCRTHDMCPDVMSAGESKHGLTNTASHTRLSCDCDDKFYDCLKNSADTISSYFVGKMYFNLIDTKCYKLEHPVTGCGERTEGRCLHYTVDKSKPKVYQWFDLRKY
# T4 sequence (P00593 23-145): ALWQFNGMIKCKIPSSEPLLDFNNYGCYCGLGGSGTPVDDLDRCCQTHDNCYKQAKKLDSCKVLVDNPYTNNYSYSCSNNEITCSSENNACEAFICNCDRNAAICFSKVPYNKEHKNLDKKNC
SMILES,"hydrolysis, A425 (Apis)",IC50 [1] [µg/mL],IC50 (COX-2 (cyclooxygenase-2)) [µg/mL],IC50 [2] [µM],IC50 [3] [µM]
CCCCCCCC(=O)Oc1cc(C(=O)O)ccc1[N+](=O)[O-] [4-nitro-3-octanoyloxy-benzoic acid],as a direct result of the cleavage of the synthetic substrate,,,,
CC1(C)Oc2cc3occ(-c4ccc5c(c4)OCO5)c(=O)c3c(O)c2C[C@H]1O [harpalycin 2],,55.96,32.73,71.7,31.1
